From ChEMBL document CHEMBL1759974, “Discovery of triazine-benzimidazoles as selective inhibitors of mTOR” (Bioorg Med Chem Lett, 2011)

How the values were obtained:
[1] = molecular target: T1, Serine/threonine-protein kinase mTOR (Homo sapiens, UniProt P42345)
Description: Inhibition of mTOR in human U-87 cells assessed as inhibition of phosphorylation of AKT at S473

[2] = molecular target: Phosphatidylinositol 4,5-bisphosphate 3-kinase catalytic subunit alpha isoform (Homo sapiens, UniProt P42336)
[3] = molecular target: T1, Serine/threonine-protein kinase mTOR; remark: listed apart in the source
[4] = molecular target: T1, Serine/threonine-protein kinase mTOR; remark: listed apart in the source
[5] = molecular target: Phosphatidylinositol 4,5-bisphosphate 3-kinase catalytic subunit beta isoform (Homo sapiens, UniProt P42338)
[6] = molecular target: Phosphatidylinositol 4,5-bisphosphate 3-kinase catalytic subunit gamma isoform (Homo sapiens, UniProt P48736)
[7] = molecular target: T2, Phosphatidylinositol 4,5-bisphosphate 3-kinase catalytic subunit delta isoform (Homo sapiens, UniProt O00329)
T2 sequence (O00329 whole entry): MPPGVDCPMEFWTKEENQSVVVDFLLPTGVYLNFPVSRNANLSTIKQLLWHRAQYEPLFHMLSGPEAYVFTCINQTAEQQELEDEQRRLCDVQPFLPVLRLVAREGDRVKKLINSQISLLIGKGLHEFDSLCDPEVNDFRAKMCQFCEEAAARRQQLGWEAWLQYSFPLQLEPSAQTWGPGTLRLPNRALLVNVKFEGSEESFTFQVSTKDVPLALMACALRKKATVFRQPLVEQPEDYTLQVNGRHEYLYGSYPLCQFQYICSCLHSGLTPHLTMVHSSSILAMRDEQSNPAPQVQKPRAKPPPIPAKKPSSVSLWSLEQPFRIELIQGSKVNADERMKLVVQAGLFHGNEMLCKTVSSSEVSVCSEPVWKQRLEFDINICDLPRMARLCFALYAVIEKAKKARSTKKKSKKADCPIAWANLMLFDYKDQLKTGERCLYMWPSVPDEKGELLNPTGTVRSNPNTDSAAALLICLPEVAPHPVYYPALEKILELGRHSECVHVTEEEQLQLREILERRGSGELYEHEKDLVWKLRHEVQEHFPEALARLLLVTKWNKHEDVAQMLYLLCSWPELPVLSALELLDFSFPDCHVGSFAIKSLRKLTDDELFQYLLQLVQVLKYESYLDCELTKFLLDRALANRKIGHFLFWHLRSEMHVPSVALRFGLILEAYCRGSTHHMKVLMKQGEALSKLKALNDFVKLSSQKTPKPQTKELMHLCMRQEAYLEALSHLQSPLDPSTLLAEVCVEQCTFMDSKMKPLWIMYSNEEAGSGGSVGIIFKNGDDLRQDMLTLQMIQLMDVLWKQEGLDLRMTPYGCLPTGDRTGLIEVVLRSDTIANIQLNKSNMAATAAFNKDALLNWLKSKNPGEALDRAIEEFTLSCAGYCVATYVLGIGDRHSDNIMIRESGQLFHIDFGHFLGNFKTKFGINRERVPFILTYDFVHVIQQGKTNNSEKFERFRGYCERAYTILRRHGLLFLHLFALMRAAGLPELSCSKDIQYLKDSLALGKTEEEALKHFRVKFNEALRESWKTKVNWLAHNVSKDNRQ

[8] = molecular target: Receptor-type tyrosine-protein kinase FLT3 (Homo sapiens) (UniProt P36888); test: Inhibition of FLT3 at 1 uM relative to control
[9] = molecular target: Casein kinase II subunit alpha (Homo sapiens) (UniProt P68400); test: Inhibition of CSNK2A1 at 1 uM relative to control
Rattus norvegicus = test: AUC in Sprague-Dawley rat at 1 mg/kg, iv; type: ADME, organism-based, Plasma; design: dose 1 mg/kg, route intravenous; details: in vivo
[10] = Volume of distribution at steady state in Sprague-Dawley rat at 1 mg/kg, iv and 2 mg/kg, po; type: ADME, organism-based; details: in vivo, read-out: Vdss
[11] = Clearance in Sprague-Dawley rat at 1 mg/kg, iv and 2 mg/kg, po; type: ADME, organism-based; details: in vivo
[12] = Plasma protein binding in Sprague-Dawley rat at 1 mg/kg, iv and 2 mg/kg, po; type: ADME, organism-based; details: read-out: PPB (converted)
[13] = Oral bioavailability in Sprague-Dawley rat at 2 mg/kg; type: ADME, organism-based; details: in vivo
[14] = Half life in Sprague-Dawley rat at 1 mg/kg, iv; type: ADME, organism-based; design: dose 1 mg/kg, route intravenous; details: in vivo
[15] = Intrinsic clearance in rat liver microsomes; type: ADME, Microsome
[16] = Intrinsic clearance in human liver microsomes; type: ADME, Microsome

Sequence of Phosphatidylinositol 4,5-bisphosphate 3-kinase catalytic subunit alpha isoform (P42336 whole entry, canonical isoform): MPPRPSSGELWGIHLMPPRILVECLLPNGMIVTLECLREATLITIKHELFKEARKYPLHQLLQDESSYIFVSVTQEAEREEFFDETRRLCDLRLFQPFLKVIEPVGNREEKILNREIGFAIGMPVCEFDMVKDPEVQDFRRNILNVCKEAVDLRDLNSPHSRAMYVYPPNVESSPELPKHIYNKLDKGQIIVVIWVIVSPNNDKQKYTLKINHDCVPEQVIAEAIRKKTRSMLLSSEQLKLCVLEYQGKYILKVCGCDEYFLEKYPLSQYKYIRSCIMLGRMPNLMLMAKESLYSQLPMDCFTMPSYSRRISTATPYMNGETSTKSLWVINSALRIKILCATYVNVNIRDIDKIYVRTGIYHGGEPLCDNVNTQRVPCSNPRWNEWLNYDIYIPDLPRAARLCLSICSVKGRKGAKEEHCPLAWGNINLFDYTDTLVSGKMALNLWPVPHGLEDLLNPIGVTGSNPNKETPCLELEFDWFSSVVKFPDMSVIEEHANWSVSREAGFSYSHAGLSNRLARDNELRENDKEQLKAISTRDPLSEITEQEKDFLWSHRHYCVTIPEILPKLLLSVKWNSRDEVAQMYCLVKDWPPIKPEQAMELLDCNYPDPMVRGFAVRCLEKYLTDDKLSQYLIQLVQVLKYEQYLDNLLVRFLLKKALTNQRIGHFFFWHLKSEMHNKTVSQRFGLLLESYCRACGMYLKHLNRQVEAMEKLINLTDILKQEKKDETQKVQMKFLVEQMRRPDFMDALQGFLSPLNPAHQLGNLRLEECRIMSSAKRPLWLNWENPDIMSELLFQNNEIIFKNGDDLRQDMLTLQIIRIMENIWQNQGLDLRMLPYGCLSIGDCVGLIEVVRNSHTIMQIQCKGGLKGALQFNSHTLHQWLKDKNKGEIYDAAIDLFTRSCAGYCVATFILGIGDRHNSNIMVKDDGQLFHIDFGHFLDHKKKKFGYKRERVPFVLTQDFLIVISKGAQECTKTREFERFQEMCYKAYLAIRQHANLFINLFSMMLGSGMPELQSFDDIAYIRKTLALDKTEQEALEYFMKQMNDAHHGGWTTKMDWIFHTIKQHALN
Sequence of Phosphatidylinositol 4,5-bisphosphate 3-kinase catalytic subunit beta isoform (P42338 whole entry, canonical isoform): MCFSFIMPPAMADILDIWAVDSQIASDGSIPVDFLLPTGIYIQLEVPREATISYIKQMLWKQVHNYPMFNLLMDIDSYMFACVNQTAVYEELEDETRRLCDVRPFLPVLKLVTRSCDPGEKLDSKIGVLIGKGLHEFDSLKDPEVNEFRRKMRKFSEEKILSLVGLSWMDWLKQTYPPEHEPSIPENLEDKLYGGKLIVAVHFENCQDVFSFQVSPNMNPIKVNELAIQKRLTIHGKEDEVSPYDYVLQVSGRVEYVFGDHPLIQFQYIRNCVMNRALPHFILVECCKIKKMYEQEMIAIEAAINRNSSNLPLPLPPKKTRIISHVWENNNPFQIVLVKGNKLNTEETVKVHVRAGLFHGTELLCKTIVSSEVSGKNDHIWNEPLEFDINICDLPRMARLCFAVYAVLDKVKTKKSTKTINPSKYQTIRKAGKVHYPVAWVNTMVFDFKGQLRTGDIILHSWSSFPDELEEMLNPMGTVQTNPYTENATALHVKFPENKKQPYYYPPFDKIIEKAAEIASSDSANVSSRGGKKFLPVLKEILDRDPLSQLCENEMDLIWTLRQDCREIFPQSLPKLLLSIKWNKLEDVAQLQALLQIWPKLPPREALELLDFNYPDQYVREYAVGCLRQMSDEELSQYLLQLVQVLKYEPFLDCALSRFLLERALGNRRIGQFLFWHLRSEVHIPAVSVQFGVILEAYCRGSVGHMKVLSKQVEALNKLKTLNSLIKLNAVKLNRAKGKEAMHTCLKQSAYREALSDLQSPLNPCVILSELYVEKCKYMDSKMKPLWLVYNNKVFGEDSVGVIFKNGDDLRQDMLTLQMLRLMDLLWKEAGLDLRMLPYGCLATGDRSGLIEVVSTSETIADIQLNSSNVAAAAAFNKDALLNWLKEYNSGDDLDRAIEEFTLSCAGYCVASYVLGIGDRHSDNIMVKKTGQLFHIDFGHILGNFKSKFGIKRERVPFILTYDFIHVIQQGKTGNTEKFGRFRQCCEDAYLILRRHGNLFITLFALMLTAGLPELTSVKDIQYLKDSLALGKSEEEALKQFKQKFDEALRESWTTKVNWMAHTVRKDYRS
Sequence of Phosphatidylinositol 4,5-bisphosphate 3-kinase catalytic subunit gamma isoform (P48736 whole entry, canonical isoform): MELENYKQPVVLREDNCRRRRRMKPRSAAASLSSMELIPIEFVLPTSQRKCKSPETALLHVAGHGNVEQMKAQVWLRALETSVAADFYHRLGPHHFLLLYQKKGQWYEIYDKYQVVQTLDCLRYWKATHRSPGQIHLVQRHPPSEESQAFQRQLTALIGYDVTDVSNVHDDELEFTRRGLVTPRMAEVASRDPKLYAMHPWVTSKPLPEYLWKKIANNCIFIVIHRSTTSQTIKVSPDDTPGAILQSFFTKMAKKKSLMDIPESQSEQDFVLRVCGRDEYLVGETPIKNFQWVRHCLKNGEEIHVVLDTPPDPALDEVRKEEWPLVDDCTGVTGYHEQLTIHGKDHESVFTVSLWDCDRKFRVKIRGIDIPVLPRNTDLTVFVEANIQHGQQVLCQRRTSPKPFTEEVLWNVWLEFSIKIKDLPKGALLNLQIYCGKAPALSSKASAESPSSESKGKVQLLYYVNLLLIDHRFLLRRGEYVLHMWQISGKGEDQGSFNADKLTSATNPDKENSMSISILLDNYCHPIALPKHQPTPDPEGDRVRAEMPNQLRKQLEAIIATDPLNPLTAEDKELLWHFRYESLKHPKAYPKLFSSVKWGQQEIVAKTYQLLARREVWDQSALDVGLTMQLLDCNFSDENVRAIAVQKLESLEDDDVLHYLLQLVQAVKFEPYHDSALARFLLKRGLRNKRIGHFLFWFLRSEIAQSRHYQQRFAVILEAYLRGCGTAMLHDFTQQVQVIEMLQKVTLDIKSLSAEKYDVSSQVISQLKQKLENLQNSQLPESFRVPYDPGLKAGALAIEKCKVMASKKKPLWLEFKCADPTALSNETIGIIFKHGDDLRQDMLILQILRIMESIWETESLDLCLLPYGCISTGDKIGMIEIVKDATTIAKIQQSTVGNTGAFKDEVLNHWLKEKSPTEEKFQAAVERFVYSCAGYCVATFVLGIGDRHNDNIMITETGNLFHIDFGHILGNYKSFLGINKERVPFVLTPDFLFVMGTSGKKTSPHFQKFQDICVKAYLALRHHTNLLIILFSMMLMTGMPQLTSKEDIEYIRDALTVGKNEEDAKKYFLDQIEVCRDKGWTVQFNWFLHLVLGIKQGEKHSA
Sequence of Casein kinase II subunit alpha (Homo sapiens) (P68400 whole entry, looked up): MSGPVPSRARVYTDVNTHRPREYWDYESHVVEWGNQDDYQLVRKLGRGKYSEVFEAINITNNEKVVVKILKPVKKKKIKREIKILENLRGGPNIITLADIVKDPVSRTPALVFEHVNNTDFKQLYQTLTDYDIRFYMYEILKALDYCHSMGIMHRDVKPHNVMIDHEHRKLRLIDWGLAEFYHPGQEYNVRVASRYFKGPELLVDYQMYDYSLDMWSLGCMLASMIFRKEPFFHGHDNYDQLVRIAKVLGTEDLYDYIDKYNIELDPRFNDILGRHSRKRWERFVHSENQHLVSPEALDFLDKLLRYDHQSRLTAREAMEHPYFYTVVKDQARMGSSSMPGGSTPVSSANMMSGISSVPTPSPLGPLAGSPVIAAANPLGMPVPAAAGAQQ
Sequence of Receptor-type tyrosine-protein kinase FLT3 (Homo sapiens) (P36888 whole entry): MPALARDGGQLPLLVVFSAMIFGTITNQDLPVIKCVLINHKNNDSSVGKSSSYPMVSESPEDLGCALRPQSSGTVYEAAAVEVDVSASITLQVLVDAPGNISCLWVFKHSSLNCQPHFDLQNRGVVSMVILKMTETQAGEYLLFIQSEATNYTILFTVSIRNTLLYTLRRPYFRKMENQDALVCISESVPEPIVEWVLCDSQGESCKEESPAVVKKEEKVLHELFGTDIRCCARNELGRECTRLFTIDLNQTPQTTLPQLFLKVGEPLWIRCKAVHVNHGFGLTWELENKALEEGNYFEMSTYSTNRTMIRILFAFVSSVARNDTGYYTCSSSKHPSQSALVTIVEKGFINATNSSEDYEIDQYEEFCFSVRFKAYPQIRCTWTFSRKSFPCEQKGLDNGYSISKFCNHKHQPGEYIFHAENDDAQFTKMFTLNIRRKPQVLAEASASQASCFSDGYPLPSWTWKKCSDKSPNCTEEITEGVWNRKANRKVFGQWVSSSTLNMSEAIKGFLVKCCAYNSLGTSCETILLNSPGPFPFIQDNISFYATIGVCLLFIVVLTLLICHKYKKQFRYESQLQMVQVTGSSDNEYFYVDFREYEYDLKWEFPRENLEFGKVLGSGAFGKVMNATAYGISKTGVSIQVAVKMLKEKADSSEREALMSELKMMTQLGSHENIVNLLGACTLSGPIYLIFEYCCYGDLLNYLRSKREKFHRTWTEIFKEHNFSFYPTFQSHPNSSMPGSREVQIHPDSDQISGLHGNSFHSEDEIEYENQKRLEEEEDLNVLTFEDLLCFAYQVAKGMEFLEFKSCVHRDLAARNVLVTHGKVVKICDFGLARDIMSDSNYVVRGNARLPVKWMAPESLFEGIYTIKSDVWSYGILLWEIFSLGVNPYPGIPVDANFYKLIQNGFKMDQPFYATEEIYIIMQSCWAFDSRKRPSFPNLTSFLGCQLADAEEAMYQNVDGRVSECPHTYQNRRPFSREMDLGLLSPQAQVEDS

Row | SMILES | IC50 [1] [nM] | IC50 [2] [nM] | IC50 [3] [nM] | IC50 [4] [nM] | IC50 [5] [nM] | IC50 [6] [nM] | IC50 [7] [nM] | inhibition [8] [%] | inhibition [9] [%] | AUC (Rattus norvegicus) [nM] | Vd [10] [L/kg] | clearance [11] [mL/min/kg] | fraction unbound [12] | bioavailability [13] [%] | half-life [14] [min] | microsomal CLint [15] [µL/min/mg] | microsomal CLint [16] [µL/min/mg]
1 | Cc1nc(N)nc(-n2c(Nc3nc[nH]n3)nc3ccccc32)n1 | 4600 | – | 33100 | > 25000 | – | – | – | – | – | – | – | – | – | – | – | – | –
2 | Cc1nc(N)nc(-n2c(Nc3ccc4cn[nH]c4c3)nc3ccccc32)n1 | 120 | 200 | 27 | 1500 | 630 | 200 | 320 | – | – | – | – | – | – | – | – | – | –
3 | Cc1nc(N)cc(-n2c(Nc3cccc(O)c3)nc3ccccc32)n1 | 43 | 42 | 87 | 1200 | – | – | – | – | – | – | – | – | – | – | – | – | –
4 | CC(=O)Nc1ccc(Nc2nc3ccccc3n2-c2nc(C)nc(N)n2)cc1 | 180 | 23 | 13 | 340 | 410 | 20 | 71 | – | – | – | – | – | – | – | – | – | –
5 | COc1nc(NCC#N)nc(-n2c(Nc3cccc(O)c3)nc3ccccc32)n1 | 2100 | 520 | > 50000 | 21500 | – | – | – | – | – | – | – | – | – | – | – | – | –
6 | CCCc1nc(N)nc(-n2c(Nc3cccc(O)c3)nc3ccccc32)n1 | 2640 | 3500 | 4700 | > 25000 | – | – | – | – | – | – | – | – | – | – | – | – | –
7 | Cc1nc(N)nc(-n2c(Nc3ccn(C)n3)nc3ccccc32)n1 | 580 | 6200 | 270 | 5300 | 28800 | 4100 | 4600 | – | – | – | – | – | – | – | – | – | –
8 | Oc1cccc(Nc2nc3ccccc3n2-c2ncnc(NCc3ccccn3)n2)c1 | 2400 | 3600 | 21000 | > 25000 | – | – | – | – | – | – | – | – | – | – | – | – | –
9 | Cc1nc(N)nc(-n2c(Nc3ccc4cc[nH]c4c3)nc3ccccc32)n1 | 140 | 230 | 28 | 960 | 1000 | 340 | 240 | – | – | – | – | – | – | – | – | – | –
10 | Cc1nc(N)nc(-n2c(Nc3ccn[nH]3)nc3cc(F)c(F)cc32)n1 | 45 | – | 24 | 340 | 1000 | 250 | 110 | – | – | 964 | 3 | 50 | 0.01 | 6 | 42 | – | –
11 | Oc1cccc(Nc2nc3ccccc3n2-c2ncnc(NCC(F)(F)F)n2)c1 | 3200 | 3600 | > 50000 | > 25000 | – | – | – | – | – | – | – | – | – | – | – | – | –
12 | COc1ncnc(-n2c(Nc3cccc(O)c3)nc3ccccc32)n1 | 1900 | 1700 | > 50000 | > 25000 | – | – | – | – | – | – | – | – | – | – | – | – | –
13 | Cc1nc(N)nc(-n2c(Nc3n[nH]c4ccccc34)nc3ccccc32)n1 | 250 | 960 | 60 | 4200 | 420 | 190 | 270 | – | – | – | – | – | – | – | – | – | –
14 | Nc1cc(-n2c(Nc3cccc(O)c3)nc3ccccc32)ncn1 | 420 | 1000 | 110 | 3500 | – | – | – | – | – | – | – | – | – | – | – | – | –
15 | Cc1nc(N)nc(-n2c(Nc3cccc(C(N)=O)c3)nc3ccccc32)n1 | 190 | 290 | 175 | 3900 | 1030 | 480 | 40 | – | – | – | – | – | – | – | – | – | –
16 | CNC(=O)c1ccc(Nc2nc3ccccc3n2-c2nc(C)nc(N)n2)o1 | 680 | 520 | 150 | > 25000 | 1800 | 26 | 140 | – | – | – | – | – | – | – | – | – | –
17 | CNc1ncnc(-n2c(Nc3cccc(O)c3)nc3ccccc32)n1 | 180 | 190 | 250 | 2900 | – | – | – | – | – | – | – | – | – | – | – | – | –
18 | Oc1cccc(Nc2nc3ccccc3n2-c2ncnc(Nc3ccccc3)n2)c1 | 870 | 720 | 2300 | > 25000 | – | – | – | – | – | – | – | – | – | – | – | – | –
19 | Cc1nc(N)nc(-n2c(Nc3ccnn3C)nc3ccccc32)n1 | 540 | 1900 | > 50000 | > 25000 | 6900 | 2300 | 3300 | – | – | – | – | – | – | – | – | – | –
20 | Oc1cccc(Nc2nc3ccccc3n2-c2ncncn2)c1 | 1600 | 2000 | 3000 | > 25000 | – | – | – | – | – | – | – | – | – | – | – | – | –
21 | CNC(=O)Nc1ccc(Nc2nc3ccccc3n2-c2nc(C)nc(N)n2)cc1 | 11 | 6 | 2 | 340 | 17 | 13 | 11 | – | – | – | – | – | – | – | – | – | –
22 | Cc1nc(N)nc(-n2c(Nc3ccon3)nc3ccccc32)n1 | 260 | 840 | 150 | 3300 | 3100 | 2300 | 1300 | – | – | 1930 | 1.4 | 30 | 0.023 | – | 30 | 46 | 39
23 | CCc1nc(N)nc(-n2c(Nc3cccc(O)c3)nc3ccccc32)n1 | 410 | 340 | 390 | 6300 | – | – | – | – | – | – | – | – | – | – | – | – | –

The remaining compounds from weak to strong by IC50 [1], led by results:

Row | IC50 [1] [nM] | IC50 [2] [nM] | IC50 [3] [nM] | IC50 [4] [nM] | IC50 [5] [nM] | IC50 [6] [nM] | IC50 [7] [nM] | inhibition [8] [%] | inhibition [9] [%] | AUC (Rattus norvegicus) [nM] | Vd [10] [L/kg] | clearance [11] [mL/min/kg] | fraction unbound [12] | bioavailability [13] [%] | half-life [14] [min] | microsomal CLint [15] [µL/min/mg] | microsomal CLint [16] [µL/min/mg] | SMILES
24 | 770 | 10400 | 340 | 6500 | 22300 | 860 | 530 | – | – | – | – | – | – | – | – | – | – | Cc1nc(N)nc(-n2c(Nc3ccn(C(F)F)n3)nc3ccccc32)n1
25 | 680 | 1600 | 21400 | > 25000 | 2400 | 30 | 710 | – | – | – | – | – | – | – | – | – | – | Cc1nc(N)nc(-n2c(NC3CCOCC3)nc3ccccc32)n1
26 | 600 | 370 | 370 | 8900 | – | – | – | – | – | – | – | – | – | – | – | – | – | Cc1nccc(-n2c(Nc3cccc(O)c3)nc3ccccc32)n1
27 | 190 | 260 | 420 | > 25000 | 1000 | 470 | 360 | – | – | – | – | – | – | – | – | – | – | Cc1nc(N)nc(-n2c(Nc3ccccc3)nc3ccccc32)n1
28 | 180 | 460 | 190 | 5300 | 1000 | 610 | 690 | – | – | – | – | – | – | – | – | – | – | Cc1nc(N)nc(-n2c(Nc3cn[nH]c3)nc3ccccc32)n1
29 | 150 | 4000 | 80 | 1400 | 3700 | 3700 | 4600 | – | – | – | – | – | – | – | – | – | – | C#CCNc1nc(C)nc(-n2c(Nc3ccn[nH]3)nc3ccccc32)n1
30 | 120 | 630 | 290 | 1500 | 1400 | 110 | 890 | – | – | – | – | – | – | – | – | – | – | CC(=O)Nc1cccc(Nc2nc3ccccc3n2-c2nc(C)nc(N)n2)c1
31 | 34 | 130 | 21 | 710 | – | – | – | – | – | – | – | – | – | – | – | – | – | Nc1ncnc(-n2c(Nc3cccc(O)c3)nc3ccccc32)n1
32 | 17 | 32 | 8 | 380 | – | – | – | – | – | – | – | – | – | – | – | – | – | Cc1nc(NCC#N)nc(-n2c(Nc3cccc(O)c3)nc3ccccc32)n1
33 | 9 | 4 | 7 | 150 | 9 | 8 | 3 | 14 | 15 | – | – | – | – | – | – | – | – | Cc1nc(N)nc(-n2c(Nc3cccc(O)c3)nc3ccccc32)n1
34 | 5 | 0.6 | 0.2 | 97 | 0.2 | 5 | 0.4 | – | – | – | – | – | – | – | – | – | – | Cc1nc(N)nc(-n2c(Nc3cc(O)cc(O)c3)nc3ccccc32)n1
